Test results from PubChem BioAssay AID2060607 (Molecular Pharmacology Branch, DTP, NCI, 2025).
Where “and” joins values, the source holds several entries; their conditions need not be identical. Identical values can stand only once.

System: 876862-298-R-J1-PDC complex spheroids, viability % test/control
Experiment: Anticancer human tumor 876862-298-R-J1-PDC patient-derived endometrial carcinoma cell line growth inhibition [CLK]
Settings: for viability, T/C: stronger effect = lower value
How it was run: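 Patient-derived tumor cells grown as complex spheroids with HUVEC endothelial cells and mesenchymal stem cells, treated with drug combinations. Concentrations descend in half-log steps from near clinical Cmax, or from 10 microM if Cmax unknown.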

[1] = curve of first compound, second compound 0.0316 µM
[2] = curve of first compound, second compound 0.1 µM
[3] = curve of first compound, second compound 0.316 µM
[4] = curve of first compound, second compound 1 µM
[5] = curve of first compound, second compound 3.16 µM
[6] = curve of first compound, second compound 10 µM
[7] = second compound 0.0316 µM, first compound 0.0316 µM
[8] = second compound 0.0316 µM, first compound 0.1 µM
[9] = second compound 0.0316 µM, first compound 0.316 µM
[10] = second compound 0.0316 µM, first compound 1 µM
[11] = second compound 0.0316 µM, first compound 3.16 µM
[12] = second compound 0.0316 µM, first compound 10 µM
[13] = second compound 0.1 µM, first compound 0.0316 µM
[14] = second compound 0.1 µM, first compound 0.1 µM
[15] = second compound 0.1 µM, first compound 0.316 µM
[16] = second compound 0.1 µM, first compound 1 µM
[17] = second compound 0.1 µM, first compound 3.16 µM
[18] = second compound 0.1 µM, first compound 10 µM
[19] = second compound 0.316 µM, first compound 0.0316 µM
[20] = second compound 0.316 µM, first compound 0.1 µM
[21] = second compound 0.316 µM, first compound 0.316 µM
[22] = second compound 0.316 µM, first compound 1 µM
[23] = second compound 0.316 µM, first compound 3.16 µM
[24] = second compound 0.316 µM, first compound 10 µM
[25] = second compound 1 µM, first compound 0.0316 µM
[26] = second compound 1 µM, first compound 0.1 µM
[27] = second compound 1 µM, first compound 0.316 µM
[28] = second compound 1 µM, first compound 1 µM
[29] = second compound 1 µM, first compound 3.16 µM
[30] = second compound 1 µM, first compound 10 µM
[31] = second compound 3.16 µM, first compound 0.0316 µM
[32] = second compound 3.16 µM, first compound 0.1 µM
[33] = second compound 3.16 µM, first compound 0.316 µM
[34] = second compound 3.16 µM, first compound 1 µM
[35] = second compound 3.16 µM, first compound 3.16 µM
[36] = second compound 3.16 µM, first compound 10 µM
[37] = second compound 10 µM, first compound 0.0316 µM
[38] = second compound 10 µM, first compound 0.1 µM
[39] = second compound 10 µM, first compound 0.316 µM
[40] = second compound 10 µM, first compound 1 µM
[41] = second compound 10 µM, first compound 3.16 µM
[42] = second compound 10 µM, first compound 10 µM
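Note: spheroids exposed to drugs for 7 days before readout.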
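Throughout, for viability, T/C: 100% = DMSO vehicle control wells.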

For `COc1ccc([C@@H](O)c2cc(-c3ncnc4cc(N5CCOCC5)ccc34)c(F)cc2Cl)nn1`, the viability, T/C (compound 0.0316 µM) was 109% and 103%, the viability, T/C (compound 0.1 µM) was 88.9% and 106% and the viability, T/C (compound 0.316 µM) was 108% and 101%. The viability, T/C (compound 1 µM) was 98.5% and 89.7%, the viability, T/C (compound 3.16 µM) was 73.1% and 69% and the viability, T/C (compound 10 µM) was 49.9% and 28.5%. The IC50 (curve of compound) was 9980 nM and 5390 nM.
In the case of `CC(CO)NC(=O)c1cc(-c2ccc(Cl)cc2)nn(-c2cnn(C)c2)c1=O` (stereo not given) + CN1CCN(c2cc(C(=O)Nc3cc4cc(-c5cnn(C)c5)ccc4cn3)ccn2)CC1, the IC50 [1] is reported as > 10000 nM, the IC50 [2] is reported as 319 nM and the IC50 [3] is reported as < 31.6 nM. For the same compound, the IC50 [4] was < 31.6 nM, the IC50 [5] was < 31.6 nM and the IC50 [6] was < 31.6 nM. The viability, T/C [7] was 94.8%, the viability, T/C [8] was 81.7% and the viability, T/C [9] was 69.5%. The viability, T/C [10] was 68.8%, the viability, T/C [11] was 67.5% and the viability, T/C [12] was 57.3%. For the same compound, the viability, T/C [13] was 53.9%, the viability, T/C [14] was 52.5% and the viability, T/C [15] was 49%. The viability, T/C [16] was 46.2%, the viability, T/C [17] was 49.5% and the viability, T/C [18] was 43.7%. The viability, T/C [19] was 5.52%, the viability, T/C [20] was 5.79% and the viability, T/C [21] was 7.05%. For the same compound, the viability, T/C [22] was 8.98%, the viability, T/C [23] was 8.34% and the viability, T/C [24] was 8.71%. For the same compound, the viability, T/C [25] was 1.36%, the viability, T/C [26] was 1.36% and the viability, T/C [27] was 2.15%. For the same compound, the viability, T/C [28] was 1.19%, the viability, T/C [29] was 1.66% and the viability, T/C [30] was 1.71%. The viability, T/C [31] was 1.12%, the viability, T/C [32] was 1.53% and the viability, T/C [33] was 2.58%. The viability, T/C [34] was 1.7%, the viability, T/C [35] was 2.81% and the viability, T/C [36] was 2.69%. The viability, T/C [37] was 1.23%, the viability, T/C [38] was 1.96% and the viability, T/C [39] was 2.08%. The viability, T/C [40] was 2.68%, the viability, T/C [41] was 1.84% and the viability, T/C [42] was 2.5%.
In the case of `NC(=O)C(=Cn1cnc(-c2cc(C(F)(F)F)cc(C(F)(F)F)c2)n1)c1cncnc1`, the viability, T/C (compound 0.00949 µM) is reported as 78% and 78.2%, the viability, T/C (compound 0.03 µM) is reported as 54.1% and 60.3% and the viability, T/C (compound 0.0949 µM) is reported as 37.5% and 38.2%. The viability, T/C (compound 0.3 µM) was 33.6% and 27.7%, the viability, T/C (compound 0.949 µM) was 24.4% and 18.7% and the viability, T/C (compound 3 µM) was 13.4% and 12.4%. For the same compound, the IC50 (curve of compound) was 47.3 nM and 52.2 nM.
For `Nc1ccn(C2OC(CO)C(O)C2(F)F)c(=O)n1` (stereo not given), the viability, T/C (compound 0.0316 µM) was 12.8% and 8.55%, the viability, T/C (compound 0.1 µM) was 7.47% and 6.97% and the viability, T/C (compound 0.316 µM) was 7.3% and 6.5%. The viability, T/C (compound 1 µM) was 6.05% and 6.36%, the viability, T/C (compound 3.16 µM) was 6.22% and 8.41% and the viability, T/C (compound 10 µM) was 7.04% and 6.47%. The IC50 (curve of compound) was < 31.6 nM.
In the case of `CC(=O)O[C@H]1C(=O)[C@@]2(C)[C@H]([C@H](OC(=O)c3ccccc3)[C@]3(O)C[C@H](OC(=O)[C@H](O)[C@@H](NC(=O)c4ccccc4)c4ccccc4)C(C)=C1C3(C)C)[C@]1(OC(C)=O)CO[C@@H]1C[C@@H]2O` + CN1CCN(c2cc(C(=O)Nc3cc4cc(-c5cnn(C)c5)ccc4cn3)ccn2)CC1, the IC50 [1] is reported as < 31.6 nM, the IC50 [2] is reported as < 31.6 nM and the IC50 [3] is reported as < 31.6 nM. The IC50 [4] was < 31.6 nM, the IC50 [5] was < 31.6 nM and the IC50 [6] was < 31.6 nM. For the same compound, the viability, T/C [7] was 32.4%, the viability, T/C [8] was 28.7% and the viability, T/C [9] was 30.5%. It also gave a viability, T/C [10] of 28.1%, a viability, T/C [11] of 30.7% and a viability, T/C [12] of 34.8%. It also gave a viability, T/C [13] of 28.6%, a viability, T/C [14] of 24.5% and a viability, T/C [15] of 22.7%. The viability, T/C [16] was 21.3%, the viability, T/C [17] was 23.5% and the viability, T/C [18] was 24.1%. The viability, T/C [19] was 1.74%, the viability, T/C [20] was 1.82% and the viability, T/C [21] was 2.01%. It also gave a viability, T/C [22] of 2.21%, a viability, T/C [23] of 2.68% and a viability, T/C [24] of 4.53%. For the same compound, the viability, T/C [25] was 0.82%, the viability, T/C [26] was 0.89% and the viability, T/C [27] was 0.6%. It also gave a viability, T/C [28] of 0.59%, a viability, T/C [29] of 0.84% and a viability, T/C [30] of 0.56%. For the same compound, the viability, T/C [31] was 0.93%, the viability, T/C [32] was 0.84% and the viability, T/C [33] was 0.96%. For the same compound, the viability, T/C [34] was 0.79%, the viability, T/C [35] was 0.78% and the viability, T/C [36] was 0.55%. The viability, T/C [37] was 0.6%, the viability, T/C [38] was 0.59% and the viability, T/C [39] was 0.57%. For the same compound, the viability, T/C [40] was 0.58%, the viability, T/C [41] was 0.66% and the viability, T/C [42] was 0.58%.
